Source: patent publication US20140107109A1, “AMINO-DIHYDROTHIAZINE AND AMINO-DIOXIDO DIHYDROTHIAZINE COMPOUNDS AS BETA-SECRETASE ANTAGONISTS AND METHODS OF USE” (Amgen Inc., priority 2012, published 2014)
Like-named read-outs stand apart in the source and are kept apart here.

Experiments:
[1] = target: Beta Secretase enzyme (BACE1) (Homo sapiens, UniProt P56817); assay: In vitro enzymatic BACE FRET assay; format: biochemical
In short: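 BACE1 cleavage of a 50 nM fluorophore/quencher peptide FRET substrate ran for one hour in 0.05 M acetate pH 4.2, 10% DMSO, 100 uM genapol. Tris buffer raised pH to neutrality to stop the reaction before fluorescence was read (excitation 488 nm, […]).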

Cathepsin D (Cat D) = target: T1, Cathepsin D (Cat D) (Homo sapiens, UniProt P07339); assay: In vitro enzymatic Cathepsin D (Cat D) FRET assay; format: biochemical
T1 construct: Recombinant Cat D was expressed in CHO cells; made in house; host or cells: CHO cells
T1 sequence (P07339 65-412, species assumed): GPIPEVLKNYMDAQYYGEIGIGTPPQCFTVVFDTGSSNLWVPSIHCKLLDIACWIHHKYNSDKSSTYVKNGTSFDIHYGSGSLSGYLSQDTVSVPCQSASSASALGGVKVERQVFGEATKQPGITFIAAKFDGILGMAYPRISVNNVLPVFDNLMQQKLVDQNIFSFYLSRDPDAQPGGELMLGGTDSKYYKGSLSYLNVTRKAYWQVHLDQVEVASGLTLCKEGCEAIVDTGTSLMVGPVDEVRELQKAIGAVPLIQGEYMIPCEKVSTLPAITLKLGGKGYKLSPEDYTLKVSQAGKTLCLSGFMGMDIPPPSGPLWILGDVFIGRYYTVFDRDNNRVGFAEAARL
In short: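 Recombinant Cat D expressed in CHO cells, used at 9 nM and pre-incubated one hour with serially diluted inhibitor in DMSO. Peptide substrate carries a fluorophore and quencher flanking the cleavage site; reaction stopped with Tris buffer raising pH to neutrality, then fluorescence read.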

[2] = test system: Aβ40 in conditioned medium of cells stably expressing Amyloid Precursor Protein (APP); assay: In vitro BACE cell-based assay (HEK cell assay), Aβ40 sandwich ELISA; conditions: Homo sapiens, HEK293
In short: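 APP-stably expressing cells (40K/well, grown 24 h in DMEM/10% FBS) were treated 24 h with compounds in 10-point dose response starting at 100 μM or 10 μM, 0.1% DMSO final. Secreted Aβ40 was measured by sandwich ELISA (pAb40 capture, biotinylated 6E10 detection, europium time-resolved fluorescence); IC50 from percent inhibition.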

[3] = average IC50, enzyme assay, read-out: BACE1 FRET assay IC50
[4] = average IC50, read-out: BACE1 FRET assay IC50

Beta Secretase enzyme (BACE1), sequence (P56817 46-501): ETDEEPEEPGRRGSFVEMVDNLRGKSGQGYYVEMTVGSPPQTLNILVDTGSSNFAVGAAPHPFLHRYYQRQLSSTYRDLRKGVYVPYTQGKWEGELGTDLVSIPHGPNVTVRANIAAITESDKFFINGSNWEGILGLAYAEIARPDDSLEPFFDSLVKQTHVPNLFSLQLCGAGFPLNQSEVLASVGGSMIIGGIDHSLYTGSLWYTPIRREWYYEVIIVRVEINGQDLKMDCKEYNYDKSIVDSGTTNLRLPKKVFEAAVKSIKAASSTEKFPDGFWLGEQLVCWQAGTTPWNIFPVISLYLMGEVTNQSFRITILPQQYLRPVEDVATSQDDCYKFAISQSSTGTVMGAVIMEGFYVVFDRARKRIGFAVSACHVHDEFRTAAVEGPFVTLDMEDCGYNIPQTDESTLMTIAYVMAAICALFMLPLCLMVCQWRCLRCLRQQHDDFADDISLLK

Structure (SMILES) | IC50 [1, 3] [µM] | IC50 (Cathepsin D (Cat D); read-out: CatD IC50) [µM] | IC50 ([2]; average IC50, cell assay) [µM] | also measured
COc1cnc2c(Nc3ccc(F)c([C@]4(CF)CS(=O)(=O)C(C)(C)C(N)=N4)c3)ncc(F)c2c1 [Example 159, (S)-5-amino-3-(2-fluoro-5-((5-fluoro-3-methoxy-1,7-naphthyridin-8-yl)amino)phenyl)-3-(fluoromethyl)-6,6-dimethyl-3,6-dihydro-2H-1,4-thiazine 1,1-dioxide] | 0.00055 | 159 | 0.0285 | 
CC1(C)C(N)=N[C@](C)(c2cc(Nc3nccc4cc(OCC(F)F)cnc34)ccc2F)CS1(=O)=O [Example 161, (R)-5-amino-3-(5-((3-(2,2-difluoroethoxy)-1,7-naphthyridin-8-yl)amino)-2-fluorophenyl)-3,6,6-trimethyl-3,6-dihydro-2H-1,4-thiazine 1,1-dioxide] | 0.0143 | 447 | 0.0178 | 
CC1(C)C(N)=N[C@](C)(c2cc(Sc3ccccn3)ccc2F)CS1(=O)=O [Example 163, (R)-5-amino-3-(2-fluoro-5-(pyridin-2-ylthio)phenyl)-3,6,6-trimethyl-3,6-dihydro-2H-1,4-thiazine 1,1-dioxide] | 3.25 | 73.5 | 2.36 | 
CC1(C)C(N)=N[C@](C)(c2cc(N)ccc2F)[C@@H](F)S1(=O)=O [Example 164, (2S,3R)-5-amino-3-(5-amino-2-fluorophenyl)-2-fluoro-3,6,6-trimethyl-3,6-dihydro-2H-1,4-thiazine 1,1-dioxide] | 3.72 | 190 | 3.03 | 
CC1(C)C(N)=N[C@](C)(c2cc(Nc3c(Cl)sc4cc(C#N)cnc34)ccc2F)CS1(=O)=O [Example 167, (R)-3-((3-(5-amino-3,6,6-trimethyl-1,1-dioxido-3,6-dihydro-2H-1,4-thiazin-3-yl)-4-fluorophenyl)-amino)-2-chlorothieno[3,2-b]pyridine-6-carbonitrile] |  | 11.8 |  | IC50 ([1]; read-out: BACE1 FRET assay IC50): 0.0139 µM; IC50 [2]: 1.44 µM
CC1(C)C(N)=N[C@](C)(c2cc(Nc3nccc4cc(Cl)cnc34)ccc2F)[C@@H](F)S1(=O)=O [Example 168, (2S,3R)-5-amino-3-(5-((3-chloro-1,7-naphthyridin-8-yl)amino)-2-fluorophenyl)-2-fluoro-3,6,6-trimethyl-3,6-dihydro-2H-1,4-thiazine 1,1-dioxide] | 0.00092 | 66.8 | 0.0167 | 
CC1(C)C(N)=N[C@](C)(c2cc(Br)c[nH]c2=O)CS1(=O)=O [Example 169, (R)-3-(5-amino-3,6,6-trimethyl-1,1-dioxido-3,6-dihydro-2H-1,4-thiazin-3-yl)-5-bromopyridin-2(1H)-one] |  | > 400 | > 15.6 | IC50 [1]: 21.1 µM
COc1ncc(NC(=O)c2ccc(Cl)cn2)cc1[C@]1(C)CS(=O)(=O)C(C)(C)C(N)=N1 [Example 170, (R)—N-(5-(5-amino-3,6,6-trimethyl-1,1-dioxido-3,6-dihydro-2H-1,4-thiazin-3-yl)-6-methoxypyridin-3-yl)-5-chloropicolinamide] | 0.0225 | 305 | 0.0289 | 
NC1=N[C@](CF)(c2cc(Br)ccc2F)CS(=O)(=O)C12CCC2 [Example 172, (S)-9-amino-7-(5-bromo-2-fluorophenyl)-7-(fluoromethyl)-5-thia-8-azaspiro[3.5]non-8-ene 5,5-dioxide] |  | 45.4 |  | IC50 [1, 4]: 3.56 µM; IC50 ([2]; average IC50, HEK cells): > 15.6 µM
C[C@]1(F)C(N)=N[C@](C)(c2cc(Nc3ncnc4cc(Cl)cnc34)ccc2F)CS1(=O)=O [Example 175, (3R,6R)-5-Amino-3-((5-(7-chloropyrido[3,2-d]pyrimidin-4-yl)amino)-2-fluorophenyl)-6-fluoro-3,6-dimethyl-3,6-dihydro-2H-1,4-thiazine 1,1-dioxide] | 0.00388 | 75.8 | 0.103 | 
COc1cnc(C(=O)Nc2ccc(F)c([C@]3(C)CS(=O)(=O)[C@](C)(F)C(N)=N3)c2)cn1 [Example 176] |  | 650 |  | IC50 [1, 4]: 0.0028 µM; IC50 ([2]; average IC50, HEK cells): 0.254 µM
Cc1nc(F)c([C@]2(C)CS(=O)(=O)C(C)(C)C(N)=N2)cc1Br [Example 184, (R)-5-Amino-3-(5-bromo-2-fluoro-6-methylpyridin-3-yl)-3,6,6-trimethyl-3,6-dihydro-2H-1,4-thiazine 1,1-dioxide] | 8.11 |  | 3.99 | IC50 (Cathepsin D (Cat D)): 127 µM
Cc1cc(Cl)cnc1C(=O)Nc1cnc(F)c([C@]2(C)CS(=O)(=O)C3(CC3)C(N)=N2)c1 [Example 186, (R)—N-(5-(8-amino-6-methyl-4,4-dioxido-4-thia-7-azaspiro[2.5]oct-7-en-6-yl)-6-fluoropyridin-3-yl)-5-chloro-3-methylpicolinamide] |  | 65.7 |  | IC50 [1, 4]: 0.0024 µM; IC50 ([2]; average IC50, HEK cells): 0.0043 µM
CC1(C)C(N)=N[C@](C)(c2cc(Br)ccc2F)C2(CC2)S1(=O)=O [Example 187] |  | > 400 |  | IC50 [1, 4]: 30.7 µM; IC50 ([2]; average IC50, HEK cells): > 15.6 µM

More lines, main results first:

IC50 [1, 3] [µM] | IC50 (Cathepsin D (Cat D); read-out: CatD IC50) [µM] | IC50 ([2]; average IC50, cell assay) [µM] | Structure (SMILES) | also measured
0.00303 | 4060 | 0.0106 | Cc1c(C(=O)Nc2ccc(F)c([C@]3(CF)CS(=O)(=O)C(C)(C)C(N)=N3)c2)nc2ccc(Cl)cn12 [Example 158, (S)—N-(3-(5-amino-3-(fluoromethyl)-6,6-dimethyl-1,1-dioxido-3,6-dihydro-2H-1,4-thiazin-3-yl)-4-fluorophenyl)-6-chloro-3-methylimidazo[1,2-a]pyridine-2-carboxamide] | 
0.575 | > 14.8 | 0.681 | CC1(C)C(N)=N[C@](C)(c2cc(NC(=O)N3CC=CCC3)ccc2F)CS1(=O)=O [Example 160, (R)—N-(3-(5-amino-3,6,6-trimethyl-1,1-dioxido-3,6-dihydro-2H-1,4-thiazin-3-yl)-4-fluorophenyl)-5,6-dihydropyridine-1(2H)-carboxamide] | 
0.0023 | 418 | 0.0015 | CC1(C)C(N)=N[C@](C)(c2cc(Nc3nncc4cc(C#N)cnc34)ccc2F)CS1(=O)=O [Example 162, (R)-8-((3-(5-amino-3,6,6-trimethyl-1,1-dioxido-3,6-dihydro-2H-1,4-thiazin-3-yl)-4-fluorophenyl)amino)pyrido[2,3-d]pyridazine-3-carbonitrile] | 
0.00927 | 186 | 0.0083 | Cc1cc(OC(F)F)cnc1C(=O)Nc1cc([C@]2(C)CS(=O)(=O)C(C)(C)C(N)=N2)c(=O)n(C)c1 [Example 171, (R)—N-(5-(5-amino-3,6,6-trimethyl-1,1-dioxido-3,6-dihydro-2H-1,4-thiazin-3-yl)-1-methyl-6-oxo-1,6-dihydropyridin-3-yl)-5-(difluoromethoxy)-3-methylpicolinamide] | 
2.29 | 104 | > 15.6 | CC1(C)C(N)=N[C@](C)(c2cc(C(=O)Nc3ccc(C#N)cc3O)ccc2F)CS1(=O)=O [Example 173, (R)-3-(5-amino-3,6,6-trimethyl-1,1-dioxido-3,6-dihydro-2H-1,4-thiazin-3-yl)-N-(4-cyano-2-hydroxyphenyl)-4-fluorobenzamide] | 
0.00033 | 101 | 0.119 | C[C@]1(F)C(N)=N[C@](C)(c2cc(Nc3nccc4cc(Cl)cnc34)ccc2F)CS1(=O)=O [Example 174, (3R,6R)-5-Amino-3-(5-((3-chloro-1,7-naphthyridin-8-yl)amino)-2-fluorophenyl)-6-fluoro-3,6-dimethyl-3,6-dihydro-2H-1,4-thiazine 1,1-dioxide] | 
0.00268 | 175 | 0.0782 | COc1cnc2c(Nc3ccc(F)c([C@]4(C)CS(=O)(=O)[C@@](C)(F)C(N)=N4)c3)ncnc2c1 [Example 177, (3R,6R)-5-Amino-6-fluoro-3-(2-fluoro-5-((7-methoxypyrido[3,2-d]pyrimidin-4-yl)amino)phenyl)-3,6-dimethyl-3,6-dihydro-2H-1,4-thiazine 1,1-dioxide] | 
 | 32.1 |  | C[C@]1(F)C(N)=N[C@](C)(c2cc(Nc3ncc(F)c4cc(Cl)cnc34)ccc2F)CS1(=O)=O [Example 178, (3R,6R)-5-Amino-3-(5-((3-chloro-5-fluoro-1,7-naphthyridin-8-yl)amino)-2-fluorophenyl)-6-fluoro-3,6-dimethyl-3,6-dihydro-2H-1,4-thiazine 1,1-dioxide] | IC50 [1, 4]: 0.00038 µM; IC50 ([2]; average IC50, HEK cells): 0.379 µM
 | > 44.4 |  | C[C@]1(F)C(N)=N[C@](C)(c2cc(Nc3ncc(F)c4cc(C#N)cnc34)ccc2F)CS1(=O)=O [Example 179, 8-((3-((3R,6R)-5-Amino-6-fluoro-3,6-dimethyl-1,1-dioxido-3,6-dihydro-2H-1,4-thiazin-3-yl)-4-fluorophenyl)amino)-5-fluoro-1,7-naphthyridine-3-carbonitrile] | IC50 [1, 4]: 0.0008 µM; IC50 ([2]; average IC50, HEK cells): 0.157 µM
0.0011 | 65.5 | 0.0894 | C[C@]1(F)C(N)=N[C@](C)(c2cc(Nc3ncnc4cc(C#N)cnc34)ccc2F)CS1(=O)=O [Example 180, 4-((3-((3R,6R)-5-Amino-6-fluoro-3,6-dimethyl-1,1-dioxido-3,6-dihydro-2H-1,4-thiazin-3-yl)-4-fluorophenyl)amino)pyrido[3,2-d]pyrimidine-7-carbonitrile] | 
